Assay results as given in patent US7550629B2, “Trifluoromethyl-containing phenylsulfonamide beta amyloid inhibitors” (Wyeth, priority 2006, dated 2009).

Tests used:
beta amyloid 40 = experiment: Aβ40/42 ELISA Assay: Aβ40; type: cell-based; conditions: Cricetulus griseus; CHO cells carrying the APP-REP-NL plasmid, 22 hours, sandwich ELISA of medium
Method: (§1) Pharmacology: Aβ40/42 ELISA Assay
(§2) Compounds are diluted from DMSO stocks to 2 μM and below in a cell culture medium. Compounds are then applied to CHO cells carrying the APP-REP-NL plasmid [Sudhir et. al, J. Biol. Chem. 267:25602-25608 (1992)] for a period of 22 hours. After the conditioning period, medium is collected, diluted in assay buffer containing protein, and samples, controls, and synthetic peptide standards are incubated on a prepared ELISA plate. Using a sandwich ELISA with antibodies specifically directed against the carboxyl terminus of beta amyloid 40 or 42 [analogous to the method reported by Haugabook et al., J. Neurosci. Methods 108:171-179 (2001) but using goat anti-mouse IgGl (source: Southern Biotech) as the anchor, 6E10 as the capture antibody (Source: SENETEK), rabbit antiαβ40 and antiαβB42 (source: QCB) and APL-donkey anti-rabbit IgG (H+L, source: Southern Biotech) as the detection antibody], the effect of the compound treatment on the cellular production of extracellular beta amyloid is quantified. Cells treated with compound are subsequently incubated in cell culture medium containing […]. After a short incubation period, MTS/medium containing plates are read in a spectrophotometer to determine the extent to which compound toxicity affected the cell's metabolism and ability to synthesize beta amyloid.
(§3) Test Samples: compound samples are supplied as 20 mM stock solutions in a 100% DMSO solution.
(§4) APP-REP-NL cells: Qualified cell lines are carried from week to week using 1:100 dilutions and are cultured in DMEM supplemented with 1× antibiotic/antimycotic, 200 μg/ml of G418 antibiotic, and 10% certified fetal calf serum. Cells are also banked in liquid nitrogen. Periodically, beta amyloid production is assessed, and cells are either kept in culture or replaced with progenitors at full expression.
(§5) Antibodies: Are from certified lots that have already been qualified in this assay. Antibodies are stored in small frozen aliquots at −80° C. that are thawed and used.
(§6) A compound is considered active if it has an EC50 for Aβ 40 reduction of <100 μM and no toxicity at doses in the vicinity the EC50.

beta amyloid 42 = experiment: Aβ40/42 ELISA Assay: Aβ42; type: cell-based; conditions: Cricetulus griseus; CHO cells carrying the APP-REP-NL plasmid, 22 hours, sandwich ELISA of medium
Method: as §1, §2, §3, §4, §5, §6

| SMILES | EC50 (beta amyloid 40) [µM] | EC50 (beta amyloid 42) [µM] |
| --- | --- | --- |
| O=S(=O)(NC(CO)C(C(F)(F)F)C(F)(F)F)c1cccc(OC(F)F)c1 (centres unmarked) [Example 8, 3-(difluoromethoxy)-N-[3,3,3-trifluoro-1-(hydroxymethyl)2-(trifluoromethyl)propyl]benzenesulfonamide] | 47.9 | – |
| CC(=O)c1cccc(S(=O)(=O)NC(CO)C(C(F)(F)F)C(F)(F)F)c1 (centres unmarked) [Example 6, 3-Acetyl-N-(3,3,3-trifluoro-1-hydroxymethyl-2-trifluoromethyl-propyl)-benzenesulfonamide] | 13.4 | 11.2 |
| Cc1cc(S(=O)(=O)NC(CO)C(C(F)(F)F)C(F)(F)F)ccc1F (centres unmarked) [Example 25, 4-Fluoro-3-methyl-N-(3,3,3-trifluoro-1-hydroxymethyl-2-trifluoromethyl-propyl)-benzenesulfonamide] | 6.63 | 8.37 |
| O=S(=O)(NC(CO)C(C(F)(F)F)C(F)(F)F)c1ccc(F)c(F)c1F (centres unmarked) [Example 40, 2,3,4-trifluoro-N-(3,3,3-trifluoro-1-hydroxymethyl-2-trifluoromethyl-propyl)-benzenesulfonamide] | 32.2 | 45.4 |
| O=S(=O)(NC(CO)C(C(F)(F)F)C(F)(F)F)c1cccc(Cl)c1Cl (centres unmarked) [Example 37, 2,3-dichloro-N-(3,3,3-trifluoro-1-hydroxymethyl-2-trifluoromethyl-propyl)-benzenesulfonamide] | 11.1 | 14 |
| O=S(=O)(NC(CO)C(C(F)(F)F)C(F)(F)F)c1ccc(Cl)c(C(F)(F)F)c1 (centres unmarked) [Example 4, 4-Chloro-N-(3,3,3-trifluoro-1-hydroxymethyl-2-trifluoromethyl-propyl)-3-trifluoromethyl-benzenesulfonamide] | 37.7 | 89.9 |
| CCc1ccc(S(=O)(=O)NC(CO)C(C(F)(F)F)C(F)(F)F)cc1 (centres unmarked) [Example 9, 4-ethyl-N-[3,3,3-trifluoro-1-(hydroxymethyl)-2-(trifluoromethyl)propyl]benzenesulfonamide] | 7.2 | 6.75 |
| COc1ccc(S(=O)(=O)NC(CO)C(C(F)(F)F)C(F)(F)F)cc1 (centres unmarked) [Example 11, 4-methoxy-N-[3,3,3-trifluoro-1-(hydroxymethyl)-2-(trifluoromethyl)propyl]benzenesulfonamide] | 6.81 | 6.44 |
| O=S(=O)(NC(CO)C(C(F)(F)F)C(F)(F)F)c1ccc(F)c(Cl)c1 (centres unmarked) [Example 39, 3-chloro-4-fluoro-N-[3,3,3-trifluoro-1-(hydroxymethyl)-2-(trifluoromethyl)propyl]benzenesulfonamide] | 6.72 | 8.62 |
| O=S(=O)(NC(CO)C(C(F)(F)F)C(F)(F)F)c1cccc(Br)c1 (centres unmarked) [Example 32, 3-bromo-N-(3,3,3-trifluoro-1-hydroxymethyl-2-trifluoromethyl-propyl)-benzenesulfonamide] | 19.8 | 25.3 |
| O=[N+]([O-])c1cc(S(=O)(=O)NC(CO)C(C(F)(F)F)C(F)(F)F)ccc1Cl (centres unmarked) [Example 5, 4-Chloro-3-nitro-N-(3,3,3-trifluoro-1-hydroxymethyl-2-trifluoromethyl-propyl)-benzenesulfonamide] | 46 | 76.9 |
| O=S(=O)(NC(CO)C(C(F)(F)F)C(F)(F)F)c1ccccc1F (centres unmarked) [Example 28, 2-fluoro-N-(3,3,3-trifluoro-1-hydroxymethyl-2-trifluoromethyl-propyl)-benzenesulfonamide] | 23.4 | 44.2 |
| O=S(=O)(NC(CO)C(C(F)(F)F)C(F)(F)F)c1ccccc1Cl (centres unmarked) [Example 30, 2-chloro-N-(3,3,3-trifluoro-1-hydroxymethyl-2-trifluoromethyl-propyl)-benzenesulfonamide] | 25.4 | 24.5 |
| O=S(=O)(NC(CO)C(C(F)(F)F)C(F)(F)F)c1ccc(OC(F)(F)F)cc1 (centres unmarked) [Example 20, N-(3,3,3-trifluoro-1-hydroxymethyl-2-trifluoromethyl-propyl)-4-trifluoromethoxy-benzenesulfonamide] | 8.51 | 6.42 |
| O=S(=O)(NC(CO)C(C(F)(F)F)C(F)(F)F)c1cc(Cl)cc(Cl)c1 (centres unmarked) [Example 36, 3,5-dichloro-N-(3,3,3-trifluoro-1-hydroxymethyl-2-trifluoromethyl-propyl)-benzenesulfonamide] | 64 | – |
| CCCc1ccc(S(=O)(=O)NC(CO)C(C(F)(F)F)C(F)(F)F)cc1 (centres unmarked) [Example 13, 4-propyl-N-[3,3,3-trifluoro-1-(hydroxymethyl)-2-(trifluoromethyl)propyl]benzenesulfonamide] | 18 | – |
| COc1cccc(S(=O)(=O)NC(CO)C(C(F)(F)F)C(F)(F)F)c1 (centres unmarked) [Example 12, 3-methoxy-N-[3,3,3-trifluoro-1-(hydroxymethyl)-2-(trifluoromethyl)propyl]benzenesulfonamide] | 24.1 | – |
| O=S(=O)(NC(CO)C(C(F)(F)F)C(F)(F)F)c1cccc(C(F)(F)F)c1 (centres unmarked) [Example 16, N-[3,3,3-trifluoro-1-(hydroxymethyl)-2-(trifluoromethyl)propyl]-3-(trifluoromethyl)benzenesulfonamide] | 28.1 | – |
| CSc1cc(S(=O)(=O)NC(CO)C(C(F)(F)F)C(F)(F)F)ccc1Cl (centres unmarked) [Example 23, 4-Chloro-3-methylsulfanyl-N-(3,3,3-trifluoro-1-hydroxymethyl-2-trifluoromethyl-propyl)-benzenesulfonamide] | 22.3 | – |

More lines, in order of falling EC50 (beta amyloid 40), values ahead:

| EC50 (beta amyloid 40) [µM] | EC50 (beta amyloid 42) [µM] | SMILES |
| --- | --- | --- |
| 6.63 | 5.5 | O=S(=O)(NC(CO)C(C(F)(F)F)C(F)(F)F)c1cc(F)c(F)c(F)c1 (centres unmarked) [Example 42, 3,4,5-Trifluoro-N-(3,3,3-trifluoro-1-hydroxymethyl-2-trifluoromethyl-propyl)-benzene sulfonamide] |
| 6.26 | 7.02 | O=S(=O)(NC(CO)C(C(F)(F)F)C(F)(F)F)c1ccccc1 (centres unmarked) [Example 33, N-(3,3,3-trifluoro-1-hydroxymethyl-2-trifluoromethyl-propyl)-benzenesulfonamide] |
| 5.57 | 5.37 | O=S(=O)(N[C@H](CO)C(C(F)(F)F)C(F)(F)F)c1ccc(Cl)c(Cl)c1 [Example 41, (S)-3,4-Dichloro-N-[3,3,3-trifluoro-1-(hydroxymethyl)-2-(trifluoromethyl)propyl]benzene sulfonamide] |
| 4.68 | 6.55 | O=S(=O)(NC(CO)C(C(F)(F)F)C(F)(F)F)c1ccc(Cl)c(Cl)c1 (centres unmarked) [Example 38, 3,4-dichloro-N-(3,3,3-trifluoro-1-hydroxymethyl-2-trifluoromethyl-propyl)-benzenesulfonamide] |
| 4.46 | 4.02 | O=S(=O)(NC(CO)C(C(F)(F)F)C(F)(F)F)c1ccc(OC(F)F)cc1 (centres unmarked) [Example 7, 4-(difluoromethoxy)-N-[3,3,3-trifluoro-1-(hydroxymethyl)-2-(trifluoromethyl)propyl]benzenesulfonamide] |
| 2.94 | 3.51 | C[C@H]([C@@H](CO)NS(=O)(=O)c1ccc(Cl)cc1)C(F)(F)F [Example 44, 4-Chloro-N-[(1S,2R)-3,3,3-trifluoro-1-(hydroxymethyl)-2-methylpropyl]benzenesulfonamide] |
| 1.4 | 1.17 | C[C@@H]([C@@H](CO)NS(=O)(=O)c1ccc(C(F)(F)F)cc1)C(F)(F)F [Example 47, N-[(1S,2S)-3,3,3-Trifluoro-1-(hydroxymethyl)-2-methylpropyl]-4-(trifluoromethyl)benzenesulfonamide] |
| 1.13 | 1.21 | O=S(=O)(NC(CO)C(C(F)(F)F)C(F)(F)F)c1ccc(F)cc1 (centres unmarked) [Example 26, 4-Fluoro-N-[3,3,3-trifluoro-1-(hydroxymethyl)-2-(trifluoromethyl)propyl]benzene sulfonamide] |
| 1.09 | 1.14 | O=S(=O)(NC(CO)C(C(F)(F)F)C(F)(F)F)c1ccc(Cl)c(F)c1 (centres unmarked) [Example 24, 4-Chloro-3-fluoro-N-(3,3,3-trifluoro-1-hydroxymethyl-2-trifluoromethyl-propyl)-benzenesulfonamide] |
| 0.997 | 0.932 | O=S(=O)(NC(CO)C(C(F)(F)F)C(F)(F)F)c1ccc(Cl)cc1 (centres unmarked) [Example 21, 4-chloro-N-(3,3,3-trifluoro-1-hydroxymethyl-2-trifluoromethyl-propyl)-benzenesulfonamide] |
| 0.886 | 0.905 | O=S(=O)(NC(CO)C(C(F)(F)F)C(F)(F)F)c1ccc(Br)cc1 (centres unmarked) [Example 31, 4-bromo-N-(3,3,3-trifluoro-1-hydroxymethyl-2-trifluoromethyl-propyl)-benzenesulfonamide] |
| 0.518 | 0.504 | O=S(=O)(NC(CO)C(CC(F)(F)F)CC(F)(F)F)c1ccc(Cl)cc1 (centres unmarked) [Example 45, 4-Chloro-N-[4,4,4-trifluoro-1-hydroxymethyl-2-(2,2,2-trifluoro-ethyl)-butyl]-benzenesulfonamide] |
